Experiments:
[1] = tested on: professional examiners; test: Cooling treated towel (direct spraying), organoleptic ranking of cooling action; format: in vivo; settings: for cooling action (in words), strength and consistency: comparison over 10 min to 24 hr, within the compound class
Excerpt: 1% ethanol solution of each of di-1-menthyl carbonate, di-1-isopulegol carbonate, 1-menthyl-1-menthoxy ethyl carbonate, 1-menthyl-1-isopulegol carbonate, 1-menthoxypropanediol methylheptenone ketal, 1-menthoxypropanediol benzaldehyde acetal, 1-menthoxypropanediol-l-citronellal acetal, menthyl palmitate, menthyl stearate, menthyl isostearate, 1-menthol, and an equivalent-weight mixture of 1-menthyl-menthoxy ethyl carbonate, menthoxypropanediol citronellal acetal and menthyl isostearate was prepared. The solution was sprayed on a pure cotton hand towel (white plain towel made in Japan, 20 cm×20 cm, degrease-finished) in an amount of 1 g. After the towel was air-dried for 10 minutes, 3 hours, or 24 hours, the cooling action of each towel was determined organoleptically. Fifteen professional examiners with 5 years or more of experience are divided into three groups; different 5 kinds of samples were ranked from the strongest to weakest in action respectively by the examiners in three groups; and the result was shown by the sum of the ranking numbers.

[2] = tested on: internal bronchia; test: Cooling towel (washing processed), organoleptic ranking of cooling action; format: in vivo; settings: for sum of the ranking numbers (cooling effect on treated hand towel after washing): 1% in base washing detergent, low sum = strong; for cooling action (in words), strength and durability: washing processed towel, comparison within the compound class
Excerpt: (§1) Each of di-1-menthyl carbonate, di-1-isopulegol carbonate, 1-menthyl-1-menthoxy ethyl carbonate, 1-menthyl-1-isopulegol carbonate, 1-menthoxypropanediol benzaldehyde acetal, 1-menthoxypropanediol methylheptenone ketal, 1-menthoxypropanediol-1-citronellal acetal, menthyl palmitate, menthyl stearate, menthyl isostearate, 1-menthoxypropanediol, and an equivalent-weight mixture of 1-menthyl-menthoxy ethyl carbonate, menthoxypropanediol citronellal acetal and menthyl isostearate was compounded with a base washing detergent solution at a concentration of 1%.
(§2) A pure cotton hand towel (white plain towel made in Japan, 20 cm×20 cm, degrease-finished) was hand-washed for 3 minutes at a particular concentration (water: 10 L, detergent: 3 g, water temperature: 17° C.), then washed with the same amount of water for 2 minutes, squeezed lightly, and air-dried indoor for 6 hours. The hand towels prepared, the hand towels after 24 hours and the hand towels after 48 hours were brought into contact with the internal bronchia and the cooling action thereof was determined organoleptically. The determination was conducted as same as Example 1, that is, […] professional examiners are divided into three groups; different 5 kinds of samples were ranked from the strongest to weakest in action respectively by the examiners in three groups; and the result was shown by the sum of the ranking numbers.

[3] = Cooling towel (washing processed), organoleptic ranking of cooling action; format: in vivo; settings: after washing treatment and air drying for 6 hours
Excerpt: as §1, §2

[4] = Group C, air-dried 10 min, 1% ethanol solution, low sum = strong
[5] = Group C, air-dried 3 hr, 1% ethanol solution, low sum = strong
[6] = Group C, air-dried 24 hr, 1% ethanol solution, low sum = strong
[7] = Group B, air-dried 10 min, 1% ethanol solution, low sum = strong
[8] = Group B, air-dried 3 hr, 1% ethanol solution, low sum = strong
[9] = Group B, air-dried 24 hr, 1% ethanol solution, low sum = strong
[10] = Group B, 24 hr (third time point)
[11] = Group A, air-dried 10 min, 1 g of 1% ethanol solution sprayed on cotton towel, ranked strongest to weakest (low sum = strong)
[12] = Group A, air-dried 3 hr, 1% ethanol solution, low sum = strong
[13] = Group A, air-dried 24 hr, 1% ethanol solution, low sum = strong

| SMILES | sum of the ranking numbers (cooling effect on treated hand towel at direct spraying) [1, 7] | sum of the ranking numbers (cooling effect on treated hand towel at direct spraying) [1, 8] | sum of the ranking numbers (cooling effect on treated hand towel at direct spraying) [1, 9] | sum of the ranking numbers (cooling effect on treated hand towel after washing) ([2]; Group B, 6 hr) | sum of the ranking numbers (cooling effect on treated hand towel after washing) [2, 10] | sum of the ranking numbers (cooling effect on treated hand towel after washing) ([2]; Group B, 24 hr) | sum of the ranking numbers (cooling effect on treated hand towel at direct spraying) [1, 11] | sum of the ranking numbers (cooling effect on treated hand towel at direct spraying) [1, 12] | sum of the ranking numbers (cooling effect on treated hand towel at direct spraying) [1, 13] | sum of the ranking numbers (cooling effect on treated hand towel after washing) ([2]; Group A, 6 hr) | sum of the ranking numbers (cooling effect on treated hand towel after washing) ([2]; Group A, 24 hr) | sum of the ranking numbers (cooling effect on treated hand towel after washing) ([2]; Group A, 48 hr) | also measured |
| --- | --- | --- | --- | --- | --- | --- | --- | --- | --- | --- | --- | --- | --- |
| CCCCCCCCCCCCCCCCCC(=O)OC1CC(C)CCC1C(C)C (centres unmarked) [Menthyl stearate, menthyl stearate] |  |  |  |  |  |  |  |  |  |  |  |  | sum of the ranking numbers (cooling effect on treated hand towel at direct spraying) [1, 4]: 21; sum of the ranking numbers (cooling effect on treated hand towel at direct spraying) [1, 5]: 15; sum of the ranking numbers (cooling effect on treated hand towel at direct spraying) [1, 6]: 17; sum of the ranking numbers (cooling effect on treated hand towel after washing) ([2]; Group C, 6 hr): 21; sum of the ranking numbers (cooling effect on treated hand towel after washing) ([2]; Group C, 24 hr): 18; sum of the ranking numbers (cooling effect on treated hand towel after washing) ([2]; Group C, 48 hr): 17 |
| CC(C)=CCCC1(C)OCC(CO[C@@H]2C[C@H](C)CC[C@H]2C(C)C)O1 (some centres unmarked) [1-menthoxypropanediol methylheptenone ketal] | 13 | 6 | 6 | 10 | 10 | 11 |  |  |  |  |  |  | cooling action (in words), strength and consistency ([1]; direct spraying): strongest in action |
| C=C(C)[C@@H]1CC[C@@H](C)C[C@H]1OC(=O)O[C@@H]1C[C@H](C)CC[C@H]1C(=C)C [Di-l-isopulegol carbonate, di-1-isopulegol carbonate] |  |  |  |  |  |  | 17 | 12 | 11 | 14 | 13 | 14 | melting point: 86 to 87 °C |
| CC(C)[C@@H]1CC[C@@H](C)C[C@H]1O [l-Menthol, 1-menthol, reference compound] | 5 | 25 | 25 | 25 | 25 | 25 | 5 | 24 | 25 | 25 | 25 | 25 | cooling action (in words) ([1]; direct spraying, after air drying for 10 minutes): strongest cooling action; cooling action (in words), strength and consistency ([1]; direct spraying): less consistent |
| CC(C)=CCC[C@H](C)CC1OCC(CO[C@@H]2C[C@H](C)CC[C@H]2C(C)C)O1 (some centres unmarked) [1-menthoxypropanediol-1-citronellal acetal] | 18 | 16 | 16 | 13 | 13 | 13 |  |  |  |  |  |  |  |
| CC(C)[C@@H]1CC[C@@H](C)C[C@H]1OCCOC(=O)O[C@@H]1C[C@H](C)CC[C@H]1C(C)C [l-Menthyl-l-menthoxy ethyl carbonate, 1-menthyl-1-menthoxy ethyl carbonate] |  |  |  |  |  |  | 10 | 5 | 5 | 8 | 7 | 7 | cooling action (in words), strength and consistency ([1]; direct spraying): superior both in initial strength and consistency; cooling action (in words), strength and durability [2]: strongest |
| CC1CCC(C(C)C)C(OCC(O)CO)C1 (centres unmarked) [1-menthoxypropanediol, reference compound] |  |  |  |  |  |  |  |  |  |  |  |  | cooling action (in words) [3]: did not have cooling action |
| CCCCCCCCCCCCCCCC(=O)OC1CC(C)CCC1C(C)C (centres unmarked) [Menthyl palmitate, menthyl palmitate] |  |  |  |  |  |  |  |  |  |  |  |  | sum of the ranking numbers (cooling effect on treated hand towel at direct spraying) [1, 4]: 15; sum of the ranking numbers (cooling effect on treated hand towel at direct spraying) [1, 5]: 17; sum of the ranking numbers (cooling effect on treated hand towel at direct spraying) [1, 6]: 17; sum of the ranking numbers (cooling effect on treated hand towel after washing) ([2]; Group C, 6 hr): 18; sum of the ranking numbers (cooling effect on treated hand towel after washing) ([2]; Group C, 24 hr): 16; sum of the ranking numbers (cooling effect on treated hand towel after washing) ([2]; Group C, 48 hr): 17 |
| CC(C)[C@@H]1CC[C@@H](C)C[C@H]1OCC1COC(c2ccccc2)O1 (some centres unmarked) [1-menthoxypropanediol benzaldehyde acetal] | 15 | 9 | 9 | 11 | 11 | 11 |  |  |  |  |  |  |  |
| C=C(C)[C@@H]1CC[C@@H](C)C[C@H]1OC(=O)O[C@@H]1C[C@H](C)CC[C@H]1C(C)C [l-Menthyl-l-isopulegol carbonate, 1-menthyl-1-isopulegol carbonate] |  |  |  |  |  |  | 19 | 1 | 14 | 12 | 12 | 11 |  |
| CC(C)[C@@H]1CC[C@@H](C)C[C@H]1OC(=O)O[C@@H]1C[C@H](C)CC[C@H]1C(C)C [Di-l-menthyl carbonate, di-1-menthyl carbonate] | 24 | 19 | 19 | 16 | 16 | 15 | 24 | 21 | 20 | 16 | 18 | 18 | sum of the ranking numbers (cooling effect on treated hand towel at direct spraying) [1, 4]: 17; sum of the ranking numbers (cooling effect on treated hand towel at direct spraying) [1, 5]: 21; sum of the ranking numbers (cooling effect on treated hand towel at direct spraying) [1, 6]: 21; sum of the ranking numbers (cooling effect on treated hand towel after washing) ([2]; Group C, 6 hr): 16; sum of the ranking numbers (cooling effect on treated hand towel after washing) ([2]; Group C, 24 hr): 21; sum of the ranking numbers (cooling effect on treated hand towel after washing) ([2]; Group C, 48 hr): 21; cooling action (in words), strength and durability [2]: weakest |

From US8632792B2, “Cooling sensation agent composition and sensory stimulation agent composition” (Takasago International Corporation, priority 2008, dated 2014)
